In patent publication US9708293B2, “N-(pyridin-2-yl)pyrimidin-4-amine derivatives containing a sulfone group” (BAYER PHARMA AKTIENGESELLSCHAFT, priority 2012, dated 2017):

How the values were obtained:
[1] = biological target: T1, CDK2/CycE (Homo sapiens, UniProt P24941); experiment: CDK2/CycE kinase assay (Method 2a); assay type: biochemical; conditions: 10 μM ATP
T1 construct: GST; purchased ProQinase GmbH (Freiburg, Germany); host or cells: insect cells (Sf9)
Description: 2a. CDK2/CycE Kinase Assay:
CDK2/CycE-inhibitory activity of compounds of the present invention was quantified employing the CDK2/CycE TR-FRET assay as described in the following paragraphs:
(§1) Recombinant fusion proteins of GST and human CDK2 and of GST and human CycE, expressed in insect cells (Sf9) and purified by Glutathion-Sepharose affinity chromatography, were purchased from ProQinase GmbH (Freiburg, Germany). As substrate for the kinase reaction biotinylated peptide biotin-Ttds-YISPLKSPYKISEG (C-terminus in amid form) was used which can be purchased e.g. form the company JERINI Peptide Technologies (Berlin, Germany).
For the assay 50 nl of a 100 fold concentrated solution of the test compound in DMSO was pipetted into a black low volume 384 well microtiter plate (Greiner Bio-One, Frickenhausen, Germany), 2 μl of a solution of CDK2/CycE in aqueous assay buffer [50 mM Tris/HCl pH 8.0, 10 mM MgCl2, 1.0 mM dithiothreitol, 0.1 mM sodium ortho-vanadate, 0.01% (v/v) Nonidet-P40 (Sigma)] were added and the mixture was incubated for 15 min at 22° C. to allow pre-binding of the test compounds to the enzyme before the start of the kinase reaction. Then the kinase reaction was started by the addition of 3 μl of a solution of adenosine-tri-phosphate (ATP, 16.7 μM=>final conc. in the 5 μl assay volume is 10 μM) and substrate (1.25 μM=>final conc. in the 5 μl assay volume is 0.75 μM) in assay buffer and the resulting mixture was incubated for a reaction time of 25 min at 22° C. The concentration of CDK2/CycE was adjusted depending of the activity of the enzyme lot and was chosen appropriate to have the assay in the linear range, typical concentrations were in the range of 130 ng/mL. The reaction was stopped by the addition of 5 μl of a solution of TR-FRET detection reagents (0.2 μM streptavidine-XL665 [Cisbio Bioassays, Codolet, France] and 1 nM anti-RB(pSer807/pSer811)-antibody from BD Pharmingen [#558389] and 1.2 nM LANCE EU-W1024 labeled anti-mouse IgG antibody [Perkin-Elmer, product no. AD0077]) in an aqueous EDTA-solution (100 mM EDTA, 0.2% (w/v) bovine serum albumin in 100 mM HEPES/NaOH pH 7.0).
(§2) The resulting mixture was incubated 1 h at 22° C. to allow the formation of complex between the phosphorylated biotinylated peptide and the detection reagents. Subsequently the amount of phosphorylated substrate was evaluated by measurement of the resonance energy transfer from the Eu-chelate to the streptavidine-XL. Therefore, the fluorescence emissions at 620 nm and 665 nm after excitation at 350 nm was measured in a TR-FRET reader, e.g. a Rubystar (BMG Labtechnologies, Offenburg, Germany) or a Viewlux (Perkin-Elmer). The ratio of the emissions at 665 nm and at 622 nm was taken as the measure for the amount of phosphorylated substrate. […]

[2] = biological target: T1, CDK2/CycE; experiment: CDK2/CycE high ATP kinase assay (Method 2b); assay type: biochemical; conditions: 2 mM ATP, read-out: high ATP CDK2: CDK2/CycE1 kinase assay IC50
Experimental: 2b. CDK2/CycE High ATP Kinase Assay
CDK2/CycE-inhibitory activity of compounds of the present invention at 2 mM adenosine-tri-phosphate (ATP) was quantified employing the CDK2/CycE TR-FRET (TR-FRET=Time Resolved Fluorescence Energy Transfer) assay as described in the following paragraphs.
as §1, with “were purchase” for “were purchased”, “JERINI peptide technologies” for “JERINI Peptide Technologies”
For the assay 50 nl of a 100 fold concentrated solution of the test compound in DMSO was pipetted into a black low volume 384 well microtiter plate (Greiner Bio-One, Frickenhausen, Germany), 2 μl of a solution of CDK2/CycE in aqueous assay buffer [50 mM Tris/HCl pH 8.0, 10 mM MgCl2, 1.0 mM dithiothreitol, 0.1 mM sodium ortho-vanadate, 0.01% (v/v) Nonidet-P40 (Sigma)] were added and the mixture was incubated for 15 min at 22° C. to allow pre-binding of the test compounds to the enzyme before the start of the kinase reaction. Then the kinase reaction was started by the addition of 3 μl of a solution ATP (3.33 mM=>final conc. in the 5 μl assay volume is 2 mM) and substrate (1.25 μM=>final conc. in the 5 μl assay volume is 0.75 μM) in assay buffer and the resulting mixture was incubated for a reaction time of […] at 22° C. The concentration of CDK2/CycE was adjusted depending of the activity of the enzyme lot and was chosen appropriate to have the assay in the linear range, typical concentrations were in the range of 15 ng/ml. […]
as §2, with “nm wer” for “nm was”, “(Perkin-Elmer).” for “(Perkin-Elmer). The ratio of the emissions at 665 nm and at 622 nm was taken as the measure for the amount of phosphorylated substrate.”

IC50 [1] [nM] | IC50 [2] [nM] | SMILES
90 | 2250 | COc1cc(F)ccc1-c1cc(Nc2cc(CS(C)(=O)=O)cc(C)n2)ncn1 [Example 2, 6-(4-Fluoro-2-methoxyphenyl)-N-{6-methyl-4-[(methylsulfonyl)methyl]pyridin-2-yl}pyrimidin-4-amine]
280 | ≥ 20000 | COc1cc(F)ccc1-c1cc(Nc2cc(CS(C)(=O)=O)ccn2)ncn1 [Example 1, 6-(4-Fluoro-2-methoxyphenyl)-N-{4-[(methylsulfonyl)methyl]pyridin-2-yl}pyrimidin-4-amine]
73 | 371 | COc1cc(F)ccc1-c1cc(Nc2cc(CS(C)(=O)=O)cc(C(F)(F)F)n2)ncn1 [Example 3, 6-(4-Fluoro-2-methoxyphenyl)-N-{4-[(methylsulfonyl)methyl]-6-(trifluoromethyl)pyridin-2-yl}pyrimidin-4-amine]
92 | 1870 | COc1cc(F)ccc1-c1cc(Nc2cc(CS(C)(=O)=O)cc(F)n2)ncn1 [Example 4, 6-(4-Fluoro-2-methoxyphenyl)-N-{6-fluoro-4-[(methylsulfonyl)methyl]pyridin-2-yl}pyrimidin-4-amine]
